We go through 27 compounds from patent US12630528B2, “Amino aryl derivative useful as diacylglycerol acyltransferase 2 inhibitor and use thereof” (LG CHEM, LTD., priority 2019, dated 2026).

Broadly, the IC50 is the concentration that gives 50% inhibition.

The target in this experiment is T1, human DGAT2 (Homo sapiens, UniProt Q96PD7).
T1 construct: FLAG (DYKDDDDK); made in house; host or cells: Sf-21 insect cells (BacPAK baculovirus system); membrane fraction used
T1 sequence (Q96PD7 1-388): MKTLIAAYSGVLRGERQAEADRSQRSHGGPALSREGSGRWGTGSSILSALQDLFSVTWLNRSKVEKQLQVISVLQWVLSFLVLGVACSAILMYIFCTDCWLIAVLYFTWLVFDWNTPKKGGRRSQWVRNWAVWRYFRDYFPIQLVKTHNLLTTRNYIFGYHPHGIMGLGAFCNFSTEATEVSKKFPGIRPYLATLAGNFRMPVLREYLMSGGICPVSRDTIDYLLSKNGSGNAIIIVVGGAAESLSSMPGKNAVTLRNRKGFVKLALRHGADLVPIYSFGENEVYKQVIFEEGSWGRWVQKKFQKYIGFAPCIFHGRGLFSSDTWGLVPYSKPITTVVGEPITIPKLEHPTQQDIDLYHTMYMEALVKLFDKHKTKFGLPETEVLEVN
Put plainly: DGAT2 enzyme activity inhibition, Phospholipid FlashPlate SPA. The experiment is classed as biochemical. Conditions: recombinant human DGAT2 membrane protein from Sf-21 cells; inhibition of [14C]-TG production; 37° C. The essentials: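 Sf-21 membranes expressing recombinant human DGAT2 (2 μg) preincubated with compound (3 nM–10 μM, 1% DMSO) and 50 μM 1,2 sn-oleoyl glycerol, 20 min at 37 °C, then 1 μM [14C]oleoyl-CoA for 15 min. [14C]-TG counted by SPA; inhibition as % of untreated.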
In the case of `CCOc1ccccc1O[C@@H]1CCCN(c2nccc(Nc3cccc(-c4ccc(NCC(=O)O)cc4)n3)n2)C1` [Example 75, (R)-(4-(6-((2-(3-(2-ethoxyphenoxy)piperidin-1-yl)pyrimidin-4-yl)amino)pyridin-2-yl)phenyl)glycine], the IC50 came to 0.89 µM.
The value for `CCOc1ccccc1O[C@@H]1CCCN(c2ccnc(Nc3cccc(-c4ccc(NCC(=O)O)cc4)n3)n2)C1` [Example 76] was 0.3 µM; that for `CCOc1ccccc1O[C@@H]1CCCN(c2cncc(Nc3cccc(-c4ccc(NC(C)(C)C(=O)O)cc4)n3)n2)C1` [Example 77, (R)-2-((4-(6-((6-(3-(2-ethoxyphenoxy)piperidin-1-yl)pyrazin-2-yl)amino)pyridin-2-yl)phenyl)amino)-2-methylpropanoic Acid] was 0.25 µM; that for `CCOc1ccccc1O[C@@H]1CCCN(c2cncc(Nc3cccc(-c4cc(CC(C)(C)C(=O)O)ccc4F)n3)n2)C1` [Example 78, (R)-3-(3-(6-((6-(3-(2-ethoxyphenoxy)piperidin-1-yl)pyrazin-2-yl)amino)pyridin-2-yl)-4-fluorophenyl)-2,2-dimethylpropanoic Acid] was 0.29 µM.
With `CCOc1cccnc1O[C@@H]1CCCN(c2cncc(Nc3cccc(-c4cc(CC(C)(C)C(=O)O)ccc4F)n3)n2)C1` [Example 79, (R)-3-(3-(6-((6-(3-((3-ethoxypyridin-2-yl)oxy)piperidin-1-yl)pyrazin-2-yl)amino)pyridin-2-yl)-4-fluorophenyl)-2,2-dimethylpropanoic Acid], the IC50 came out at 0.27 µM.
The value for `CCOc1ccccc1O[C@@H]1CCCN(c2cncc(Nc3cccc(-c4cccc(OC(C)(C)C(=O)O)c4)n3)n2)C1` [Example 80, (R)-2-(3-(6-((6-(3-(2-ethoxyphenoxy)piperidin-1-yl)pyrazin-2-yl)amino)pyridin-2-yl)phenoxy)-2-methylpropanoic Acid] was 0.31 µM; that for `CCOc1cccnc1O[C@@H]1CCCN(c2cncc(Nc3cccc(-c4cccc(OC(C)(C)C(=O)O)c4)n3)n2)C1` [Example 81, (R)-2-(3-(6-((6-(3-((3-ethoxypyridin-2-yl)oxy)piperidin-1-yl)pyrazin-2-yl)amino)pyridin-2-yl)phenoxy)-2-methylpropanoic Acid] was 0.2 µM.
In the case of `CCOc1ccccc1O[C@@H]1CCCN(c2cncc(Nc3cccc(-c4ccc(OC(C)(C)C(=O)O)cc4)n3)n2)C1` [Example 82, (R)-2-(4-(6-((6-(3-(2-ethoxyphenoxy)piperidin-1-yl)pyrazin-2-yl)amino)pyridin-2-yl)phenoxy)-2-methylpropanoic Acid] it was 0.12 µM; in that of `CCOc1cccnc1O[C@@H]1CCCN(c2cncc(Nc3cccc(-c4ccc(OC(C)(C)C(=O)O)cc4)n3)n2)C1` [Example 83, (R)-2-(4-(6-((6-(3-((3-ethoxypyridin-2-yl)oxy)piperidin-1-yl)pyrazin-2-yl)amino)pyridin-2-yl)phenoxy)-2-methylpropanoic Acid], 0.5 µM; in that of `CCOc1ccccc1O[C@@H]1CCCN(c2cncc(Nc3cccc(-c4cc(OC(C)(C)C(=O)O)ccc4F)n3)n2)C1` [Example 84, (R)-2-(3-(6-((6-(3-(2-ethoxyphenoxy)piperidin-1-yl)pyrazin-2-yl)amino)pyridin-2-yl)-4-fluorophenoxy)-2-methylpropanoic Acid], 0.4 µM.
As for `CCOc1cccnc1O[C@@H]1CCCN(c2cncc(Nc3cccc(-c4cc(OC(C)(C)C(=O)O)ccc4F)n3)n2)C1` [Example 85, (R)-2-(3-(6-((6-(3-((3-ethoxypyridin-2-yl)oxy)piperidin-1-yl)pyrazin-2-yl)amino)pyridin-2-yl)-4-fluorophenoxy)-2-methylpropanoic Acid], the IC50 was determined as 0.22 µM.
The value for `CCOc1ccccc1O[C@@H]1CCCN(c2cncc(Nc3cccc(-c4cnn(CC(C)(C)C(=O)O)c4)n3)n2)C1` [Example 86, (R)-3-(4-(6-((6-(3-(2-ethoxyphenoxy)piperidin-1-yl)pyrazin-2-yl)amino)pyridin-2-yl)-1H-pyrazol-1-yl)-2,2-dimethylpropanoic Acid] was 0.3 µM; that for `CCOc1ccccc1O[C@@H]1CCCN(c2cncc(Nc3cccc(Oc4cccc(C(=O)O)c4)n3)n2)C1` [Example 87, (R)-3-((6-((6-(3-(2-ethoxyphenoxy)piperidin-1-yl)pyrazin-2-yl)amino)pyridin-2-yl)oxy)benzoic Acid] was 0.5 µM.
As to `CCOc1cccnc1O[C@@H]1CCCN(c2cncc(Nc3cccc(Oc4cccc(C(=O)O)c4)n3)n2)C1` [Example 88, (R)-3-((6-((6-(3-((3-ethoxypyridin-2-yl)oxy)piperidin-1-yl)pyrazin-2-yl)amino)pyridin-2-yl)oxy)benzoic Acid], the IC50 is 1.3 µM.
The value for `CCOc1ccccc1O[C@@H]1CCCN(c2cncc(Nc3cccc(Oc4ccc(C(=O)O)cc4)n3)n2)C1` [Example 89, (R)-4-((6-((6-(3-(2-ethoxyphenoxy)piperidin-1-yl)pyrazin-2-yl)amino)pyridin-2-yl)oxy)benzoic Acid] was 1.2 µM; that for `CCOc1cccnc1O[C@@H]1CCCN(c2cncc(Nc3cccc(Oc4ccc(C(=O)O)cc4)n3)n2)C1` [Example 90, (R)-4-((6-((6-(3-((3-ethoxypyridin-2-yl)oxy)piperidin-1-yl)pyrazin-2-yl)amino)pyridin-2-yl)oxy)benzoic Acid] was 1.2 µM; that for `CCOc1ccccc1O[C@@H]1CCCN(c2cncc(Nc3cccc(Oc4cccc(C(C)(C)C(=O)O)c4)n3)n2)C1` [Example 91, (R)-2-(3-((6-((6-(3-(2-ethoxyphenoxy)piperidin-1-yl)pyrazin-2-yl)amino)pyridin-2-yl)oxy)phenyl)-2-methylpropanoic Acid] was 0.34 µM.
In the case of `CCOc1cccnc1O[C@@H]1CCCN(c2cncc(Nc3cccc(Oc4cccc(C(C)(C)C(=O)O)c4)n3)n2)C1` [Example 92, (R)-2-(3-((6-((6-(3-((3-ethoxypyridin-2-yl)oxy)piperidin-1-yl)pyrazin-2-yl)amino)pyridin-2-yl)oxy)phenyl)-2-methylpropanoic Acid] it was 0.3 µM; in that of `CCOc1ccccc1O[C@@H]1CCCN(c2cncc(Nc3cccc(Oc4ccc(C(C)(C)C(=O)O)cc4)n3)n2)C1` [Example 93, (R)-2-(4-((6-((6-(3-(2-ethoxyphenoxy)piperidin-1-yl)pyrazin-2-yl)amino)pyridin-2-yl)oxy)phenyl)-2-methylpropanoic Acid], 0.17 µM; in that of `CCOc1cccnc1O[C@@H]1CCCN(c2cncc(Nc3cccc(Oc4ccc(C(C)(C)C(=O)O)cc4)n3)n2)C1` [Example 94, (R)-2-(4-((6-((6-(3-((3-ethoxypyridin-2-yl)oxy)piperidin-1-yl)pyrazin-2-yl)amino)pyridin-2-yl)oxy)phenyl)-2-methylpropanoic Acid], 0.23 µM.
In the case of `CCOc1ccccc1O[C@@H]1CCCN(c2cncc(Nc3cccc(Oc4cccc(CC(=O)O)c4)n3)n2)C1` [Example 95, (R)-2-(3-((6-((6-(3-(2-ethoxyphenoxy)piperidin-1-yl)pyrazin-2-yl)amino)pyridin-2-yl)oxy)phenyl)acetic Acid] it was 0.083 µM.
Take `CCOc1cccnc1O[C@@H]1CCCN(c2cncc(Nc3cccc(Oc4cccc(CC(=O)O)c4)n3)n2)C1` [Example 96, (R)-2-(3-((6-((6-(3-((3-ethoxypyridin-2-yl)oxy)piperidin-1-yl)pyrazin-2-yl)amino)pyridin-2-yl)oxy)phenyl)acetic Acid]: the IC50 was determined as 0.087 µM.
As for `CCOc1ccccc1O[C@@H]1CCCN(c2cncc(Nc3cccc(Oc4ccc(CC(=O)O)cc4)n3)n2)C1` [Example 97, (R)-2-(4-((6-((6-(3-(2-ethoxyphenoxy)piperidin-1-yl)pyrazin-2-yl)amino)pyridin-2-yl)oxy)phenyl)acetic Acid], the IC50 came out at 0.9 µM.
The value for `CCOc1cccnc1O[C@@H]1CCCN(c2cncc(Nc3cccc(Oc4ccc(CC(=O)O)cc4)n3)n2)C1` [Example 98, (R)-2-(4-((6-((6-(3-((3-ethoxypyridin-2-yl)oxy)piperidin-1-yl)pyrazin-2-yl)amino)pyridin-2-yl)oxy)phenyl)acetic Acid] was 0.49 µM.
In the case of `CCOc1ccccc1O[C@@H]1CCCN(c2cncc(Nc3cccc(OCc4ccc(C(=O)O)cc4)n3)n2)C1` [Example 99, (R)-4-(((6-((6-(3-(2-ethoxyphenoxy)piperidin-1-yl)pyrazin-2-yl)amino)pyridin-2-yl)oxy)methyl)benzoic Acid] it was 0.57 µM; in that of `CCOc1ccccc1O[C@@H]1CCCN(c2cncc(Nc3nc(-c4cccc(CC(C)(C)C(=O)O)c4)ccc3F)n2)C1` [Example 100, (R)-3-(3-(6-((6-(3-(2-ethoxyphenoxy)piperidin-1-yl)pyrazin-2-yl)amino)-5-fluoropyridin-2-yl)phenyl)-2,2-dimethylpropanoic Acid], 0.43 µM.
For the compound `CCOc1cccnc1O[C@@H]1CCCN(c2cncc(Nc3nc(-c4cccc(CC(C)(C)C(=O)O)c4)ccc3F)n2)C1` [Example 101, (R)-3-(3-(6-((6-(3-((3-ethoxypyridin-2-yl)oxy)piperidin-1-yl)pyrazin-2-yl)amino)-5-fluoropyridin-2-yl)phenyl)-2,2-dimethylpropanoic Acid], the IC50 was 0.19 µM.
